Laboratory results reported in patent US8334261B2, “Osteopenia animal model” (Oriental Yeast Co., Ltd., priority 2006, dated 2012).

How the values were obtained:
[1] = tested on: GST-RANKL-administered, ovariectomized 7-week-old female C57BL/6N mice; test: Drug evaluation with a selective estrogen receptor modulator (raloxifene) in GST-RANKL/OVX mice; assay type: in vivo, mouse
Excerpt: In addition, PBS (i.p.) and ultrapure water (p.o.) were used as control substances for comparison with GST-RANKL and raloxifene, respectively, upon administration.
The serum collected from each mouse was subjected to measurement of serum bone resorption markers (Ca and TRAP-5b) and an osteogenesis marker (ALP). Each femur was subjected to measurement of the bone density, the bone mineral content, and the cortical bone thickness with pQCT at points 0.6, 0.8, 1.0 mm from the distal growth plate on the proximal side. In addition, image analysis was carried out with micro CT.

[2] = tested on: 7-week-old female C57BL/6N mice; test: GST-RANKL administration test (57 and 426 nmol); assay type: in vivo, mouse
Procedure: GST-RANKL was intraperitoneally administered 3 times to groups of 7-week-old female C57BL/6N mice (10 individuals each) at doses of 57 nmol (low dose) and 426 nmol (high dose) every 24 hours. Exsanguination was performed 1.5 hours after the 3rd administration. A group to which PBS was administered in the same manner as above was used as a control group for comparison.
The exsanguinated blood was subjected to measurement of serum bone resorption parameters (calcium, CTx, TRAP-5b) and serum osteogenesis parameters (osteocalcin and alkaline phosphatase (ALP)). Calcium was measured by the OCPC method (WAKO, 272-21801). CTx (Nordic Bioscience Diagnostics), TRAP-5b (IDS Ltd, SB-TR103), and osteocalcin (Biomedical Technologies Inc.) were measured by ELISA. ALP was measured by the Bessey-Lowry method (WAKO, 274-04401).
The following organs were collected from each exsanguinated mouse: the femur, the tibia, the cerebrum, the lungs, the heart, the liver, the thymus, the spleen, the kidneys, and the skin. Naturally occurring lesions were observed by HE staining of the cerebrum, the lungs, the heart, the liver, the thymus, the spleen, the kidneys, and the skin.
Regarding the femur, the cancellous bone was subjected to bone density measurement with the use of pQCT at points 0.6 mm, 0.8 mm, and 1.0 mm from the distal growth plate on the proximal side at the distal end of the femur. Regarding the tibia, tibia sections were prepared for bone morphology measurement. Measurement values were compared with those for a control group by the Dunnett method for testing.

[3] = tested on: 7-week-old female C57BL/6N mice; test: Tibial bone morphology measurement after GST-RANKL 2 mg/kg; assay type: in vivo, mouse; details: 2 mg/kg i.p. 3 times
Procedure: GST-RANKL was intraperitoneally administered 3 times to groups of 7-week-old female C57BL/6N mice at 2 mg/kg every 24 hours, followed by dissection. The tibia of each mouse was subjected to toluidine blue staining and morphology measurement. A solvent (PBS) was administered to the control group in the same manner as above. The GST-RANKL intraperitoneal administration group was subjected to tibial bone morphology measurement. The unit bone mass (BV/TV), the trabecular width (Tb.Th), and the trabecular number (Tb.N) decreased by approximately 30% (p<0.03), approximately 10% (P<0.03), and approximately 20% (p<0.05), respectively, compared with those for the control group (FIGS. 29 to 31). In addition, the osteoid thickness (O.Th), the eroded surface area (ES/BS), the osteoclast number (N.Oc/B.Pm), and the osteoclast surface area (Oc.S/BS) increased, respectively, to approximately 1.2-fold (p<0.04), approximately 1.8-fold (p<0.001), approximately 1.9-fold (p<0.001), and approximately 1.8-fold (p<0.001) as high as those for the control group (FIGS. 32 to 35). In addition, the sections obtained in this Example were subjected to TRAP staining. […] That is, the osteopenia mechanism induced by GST-RANKL administration involves promotion of bone resorption, but not reduction in osteogenesis. However, the aforementioned coupling phenomenon causes promotion of osteogenesis depending on the GST-RANKL dose, the number of doses, and the period of time elapsed after administration, which might results in an increase in the osteoblast surface area.

[4] = tested on: 7-week-old female Fischer rats; test: Examination with Fischer rats; assay type: in vivo, rat
Procedure: GST-RANKL was intraperitoneally administered 3 times to 7-week-old female Fischer rats at 1 mg/kg every 24 hours. The serum and femur were collected from each mouse 1.5 hours after the 3rd administration, followed by comparison with the PBS administration group. The serum of each mouse was subjected to measurement (with the use of an SB-TR102 kit, IDS Ltd.) of the Ca and TRAP-5b concentrations serving as bone resorption markers and the ALP concentration serving as an osteogenesis marker. Each femur was subjected to bone density measurement with pQCT and image analysis with micro CT.

[5] = GST-RANKL administration+OVX group, 1.0 mm
[6] = high dose 426 nmol i.p. 3 times

With “GST-RANKL: fused protein of Glutathione S-transferase with human RANKL residues 140-317, expressed in Escherichia coli, 47.0 kDa” the “serum ALP concentration vs PBS+Sham group” value ([1]; GST-RANKL administration+OVX group) was “tended to increase”, the “cortical bone mineral content decrease vs PBS+Sham group” value [1, 5] was 49% and the “cortical bone thickness decrease vs PBS+Sham group” value [1, 5] was 49%. The “total bone density vs PBS+Sham group” value ([1]; GST-RANKL administration+OVX group, no significant difference) was “tended to decrease”, the “cancellous bone density (pQCT)” value ([1]; among the all groups) was “no significant differences” and the “abnormal findings and lesions in organs (HE staining)” value ([2]; 57 and 426 nmol, cerebrum, lungs, heart, liver, thymus, spleen, kidneys, skin) was “not observed”. For the same substance, the “femur bone morphology with micro CT” value ([2]; high dose 426 nmol) was “significant bone decreases”, the “serum ALP concentration” value ([2]; high dose 426 nmol) was “did not vary” and the serum osteocalcin concentration ([2]; high dose 426 nmol) was “did not vary”. For the same substance, the “tibial osteoblast surface area” value ([2]; high dose 426 nmol) was “significant osteoblast surface area increase”, the tibial osteoclast number ([2]; high dose 426 nmol) was “increased” and the “tibial trabecular number decrease” value ([2]; high dose 426 nmol) was “approximately 50%”. For the same substance, the “tibial unit bone mass decrease” value ([2]; high dose 426 nmol) was “approximately 50%”, the “serum CTx concentration, fold as high as control” value [2, 6] was “approximately 1.5 fold” and the “serum TRAP-5b concentration, fold as high as control” value [2, 6] was “approximately 1.5 fold”. The “serum Ca concentration, fold as high as control” value ([2]; high dose 426 nmol i.p. 3 times every 24 hours, 1.5 hours after 3rd administration) was “approximately 1.4 fold”, the “femur bone density decrease (pQCT)” value ([2]; high dose 426 nmol, 0.6 mm from distal growth plate) was 10% and the “femur bone density decrease (pQCT)” value ([2]; high dose 426 nmol, 0.8 mm) was 23%. For the same substance, the “femur bone density decrease (pQCT)” value ([2]; high dose 426 nmol, 1.0 mm) was 20%, the “femur bone density (pQCT) vs control” value ([2]; low dose 57 nmol) was “no significant difference” and the “serum ALP concentration” value ([2]; low dose 57 nmol) was “did not vary”. The serum osteocalcin concentration ([2]; low dose 57 nmol) was “did not vary”, the tibial trabecular number ([2]; low dose 57 nmol) was “no decrease was observed” and the “tibial unit bone mass” value ([2]; low dose 57 nmol) was “no decrease was observed”. The osteoblast surface area [3] was “no increase”, the “eroded surface area (ES/BS), fold as high as control” value ([3]; tibia) was “approximately 1.8 fold” and the “osteoclast number (N.Oc/B.Pm), fold as high as control” value ([3]; tibia) was “approximately 1.9 fold”. The “osteoclast surface area (Oc.S/BS), fold as high as control” value ([3]; tibia) was “approximately 1.8 fold”, the “osteoid thickness (O.Th), fold as high as control” value ([3]; tibia) was “approximately 1.2 fold” and the “trabecular number (Tb.N) decrease vs control” value ([3]; tibia) was “approximately 20%”. The “trabecular width (Tb.Th) decrease vs control” value ([3]; tibia) was “approximately 10%”, the “unit bone mass (BV/TV) decrease vs control” value ([3]; tibia) was “approximately 30%” and the “osteoclast number by TRAP staining” value ([3]; tibia sections) was “greater than that for the control group”. For the same substance, the “serum ALP concentration vs control” value ([4]; 1 mg/kg i.p. 3 times) was “no changes”, the “serum Ca concentration vs control” value ([4]; 1 mg/kg i.p. 3 times) was “no changes” and the “serum TRAP-5b concentration vs control” value ([4]; 1 mg/kg i.p. 3 times) was “no changes”. For the same substance, the “femur bone density decrease” value ([4]; 3 mm from the distal growth plate) was “approximately 20%”.
